Experimental findings from patent US20100249018A1, “COMPOSITION AND METHOD FOR PREVENTING AND TREATING IMMUNE-RELATED DISORDER” (priority 2007, published 2010) are described below.

One test relates to CLP mice. As to the kind of experiment: Survival in CLP (cecal ligation and puncture) sepsis mouse model. Conditions: for therapeutic effect of FPR ligands and scrambled peptide / therapeutic effect of WKYMVm analogs on experimental sepsis: 4 mg/kg subcutaneous four times at 2, 14, 26, 38 h post-CLP; for therapeutic effect of FPR ligands and scrambled peptide: FIG. 1g; for reversal of the therapeutic effects of WKYMVm by antagonist pre-treatment: antagonist 4 mg/kg subcutaneous 2 h before CLP and 2 h before each WKYMVm (4 mg/kg) treatment, FIG. 1d; for therapeutic effect of WKYMVm analogs on experimental sepsis: ICR mice, survival up to 10 days, FIG. 1h. The format is in vivo. The procedure: Male WT ICR mice and IL-12R 2-, IFN-γ-deficient, and WT C57BL/6 mice (kindly donated from Y. C. Sung, POSTECH, Republic of Korea) were used for experimental sepsis model, as previously described (Yan, J. J., Nat. Med. 10:161-167, 2004). All experiments involving animals adhered to the guidelines and received the approval of the Institutional Review Committee for Animal Care and Use at Dong-A University. For CLP, mice were anesthetized with pentothal sodium (50 mg/kg, intraperitoneal) and a small abdominal midline incision was made to expose the cecum. The cecum was then ligated below the ileocecal valve, punctured twice through both surfaces (or once for the measurement of cytokine production) using a 22-gauge needle and the abdomen was closed. Sham CLP mice were subjected to the same procedure, but without ligation and puncture of the cecum. Survival was monitored once daily for 10 days.
To investigate whether WKYMVm has a therapeutic effect on experimental sepsis, CLP was performed on albino ICR (Institute of Cancer Research) mice, and their survival was monitored for up to 10 days. […] Various doses of WKYMVm were injected subcutaneously four times into CLP mice at 2, 14, 26, and 38 h post-CLP.
To examine the effect of WKYMVm treatment, mice were injected subcutaneously with various doses of the peptide or with PBS as a negative control beginning 2 h after CLP. […] Various doses of WKYMVm were injected subcutaneously four times into CLP mice at […] post-CLP.
CLP mice were given zero, one, two, three, four, or five injections of WKYMVm (4 mg/kg, subcutaneous).
To evaluate the roles of FPR1 and FPR2, an FPR1 antagonist [N-t-butoxycarbonyl-Phe-Leu-Phe-Leu-Phe (Boc-PLPLP) (SEQ ID NO:12)] (La, M., et al., FASEB J. 15:2247-2256) and an FPR2 antagonist [Trp-Arg-Trp-Trp-Trp-Trp; WRWWWW (WRW^4) (SEQ ID NO:13)] (Bae, Y. S et al., J. Immunol. 173:607-614.) were administered prior to WKYMVm treatment in CLP mice. […] Boc-PLPLP (4 mg/kg), WRW^4 (4 mg/kg), or Boc-PLPLP (4 mg/kg)+WRW^4 (4 mg/kg) was injected subcutaneously 2 h before CLP. After CLP, Boc-PLPLP (4 mg/kg) or WRW^4 (4 mg/kg) was injected subcutaneously four times at 12-h intervals 2 h before WKYMVm treatment (4 mg/kg, subcutaneous).
Statistical analysis. Survival data were analyzed using the log-rank test. All other data were evaluated using ANOVA. The Bonferroni test was used for post hoc comparisons and statistical significance was set a priori at P<0.05.
FPR-family agonists (WKYMVm (SEQ ID NO:1), WKYMVM(SEQ ID NO:14), fMLF(SEQ ID NO:15) and MMK-1 (SEQ ID NO:16)) or scrambled peptide (VWMYmK: SEQ ID NO: 17) (4 mg/kg, respectively) were injected subcutaneously four times to CLP mice at 2, 14, 26, and 38 h post-CLP.
To investigate whether the analogs of WKYMVm(SEQ ID NO:1), WRYMVm(SEQ ID NO: 2), WKWMVm(SEQ ID NO: 3), WKRMVm(SEQ ID NO: 4), WKFMVm(SEQ ID NO: 5), WHYMVm(SEQ ID NO: 6), WKYMYm(SEQ ID NO: 7), WKYMFm(SEQ ID NO: 8), WKYMWm(SEQ ID NO: 9), WKYMVV(SEQ ID NO: 10) and WKEMVm(SEQ ID NO: 11) have therapeutic effects on experimental sepsis, CLP was performed on albino ICR (Institute of Cancer Research) mice, and their survival was monitored for up to 10 days. […] 4 mg/kg of WKYMVm or each analog of WKYMVm was injected subcutaneously four times into CLP mice at 2, 14, 26, and 38 h post-CLP (FIG. 1h).
To investigate the role of Th1 cytokines (IL-12 and IFN-γ) on WKYMVm-induced survival effect after sepsis, the CLP model was applied to IL-12Rβ2- and IFN-γ-deficient mice (C57BL/6 background). […] WT C57BL/6 or IL-12Rβ2-deficient mice were subcutaneously injected with WKYMVm (4 mg/kg) or PBS four times to CLP mice 2, 14, 26, and 38 h post-CLP. In FIG. 5d, WT C57BL/6 or IFN-γ-deficient mice were subcutaneously injected with WKYMVm (4 mg/kg) or PBS four times to CLP mice 2, 14, 26, and 38 h post-CLP. Data are expressed as the mean±standard error. *P<0.05; **P<0.01 compared with vehicle (c, d). n=10-16 mice per group (c,d) […]

Test [1] concerns E. coli ingested by mouse neutrophils. As to the kind of experiment: Neutrophil bactericidal activity in vitro. Format: cell-based. Conditions: antagonist 10 μM added 30 min prior to WKYMVm (100 nM); FIG. 3b. The procedure: To determine whether WKYMVm treatment increases bactericidal activity in vitro, mouse neutrophils were allowed to ingest E. coli for 1 h and were then stimulated with 0.1-1000 nM WKYMVm for 20 min. […] Adherent neutrophils were incubated with 10^6 opsonized E. coli for 1 h, and stimulated with vehicle (PBS) or WKYMVm (0.1, 1, 10, 100, and 1000 nM) for 1 h.
Because FPR1 and FPR2 are expressed in neutrophils (data not shown), this experiment investigated the roles of FPR1-1 and FPR2-mediated pathways in WKYMVm-induced bactericidal activity. […] Mouse neutrophils were isolated from peripheral blood using a Histopaque-1077 solution (Sigma) as described previously (Bae, Y. S., et al., J. Immunol. 171:6807-6813, 2003). Boc-PLPLP (10 μM), WRW^4 (10 μM), or Boc-PLPLP (10 μM)+WRW^4 (10 μM) was added 30 min prior to the addition of WKYMVm (100 nM). The number of viable bacteria in the neutrophils was then determined.
Neutrophil bactericidal activity was measured according to the method of Yan, J. J., et al., Nat. Med. 10:161-167, 2004. […] After washing away the unengulfed E. coli, the number of viable bacteria in the neutrophils was determined before and after incubation with several concentrations of WKYMVm or vehicle for 1 h. The percentage of bacteria killed was calculated as 100×(1−number of CFU after WKYMVm stimulation/number of CFU before WKYMVm stimulation). […]

The subject of the next test is mouse neutrophils. As to the kind of experiment: H2O2 generation in mouse neutrophils in vitro. Particulars: antagonist 10 μM prior to WKYMVm (100 nM); FIG. 3d. Format: cell-based. The procedure: Because the bactericidal effect of phagocytes is related with H2O2 production (Hampton, M. B., et al., Blood. 92:3007-3017), the effect of WKYMVm on H2O2 generation in mouse neutrophils was evaluated. […] Mouse neutrophils were stimulated with vehicle (PBS) or WKYMVm (1-1000 nM) for 15 min. Neutrophils isolated from sham, CLP−, or CLP+WKYMVm-treated mice were stimulated with 100 nM PMA for 1 h. Freshly isolated neutrophils from normal mice were stimulated with various concentrations of WKYMVm for 10 min in the presence of cytochalasin B (5 μM).
To investigate the role of FPR1 and FPR2, neutrophils were preincubated with Boc-PLPLP (10 μM), WRW^4 (10 μM), or vehicle (DMSO) for 30 minutes prior to adding WKYMVm (100 nM) for 10 min. H2O2 in the supernatant was measured using an H2O2 assay kit (Molecular Probes).
Boc-PLPLP (10 μM), WRW^4 (10 μM), or Boc-PLPLP (10 μM)+WRW^4 (10 μM) was added […] prior to the addition of WKYMVm (100 nM).

The test system of test [2] is splenocytes of Th1 mouse model. As to the kind of experiment: Splenocyte proliferation assay, Th1 mouse model (OVA+LPS). Particulars: OVA+LPS immunized mice; 72 h incubation with OVA; compared to sham-treated mice; FIG. 4e. Format: in vivo. The procedure:
To generate the Th1 and Th2 mouse models (FIG. 4b), 6-week-old C57BL/6 WT mice were twice immunized intraperitoneally with 75 μg of OVA+10 μg of LPS or 2 mg of alum on days 0 and 7 and then challenged intraperitoneally with 50 μg of OVA on days 14, 15, and 16. Isolated splenocytes were subjected to a cell proliferation assay with and without OVA incubation. Briefly, splenocytes were harvested in RPMI 1640 media and incubated (2×10^5 cells/well) in 96-well flat-bottom plates at 37° C. for 96 h in medium alone or with 5, 50 or 500 μg OVA/ml. The example measured cellular thymidine incorporation following a 72 h culture period with 1 μCi [^3H]thymidine.
Because IL-2 promotes T-cell proliferation (Benczik, M., et al., Immunol. Invest. 33:109-142), the effect of FPR activation by WKYMVm on Th1 and Th2 cell proliferation was evaluated using inert antigens. WKYMVm (4 mg/kg) was injected subcutaneously four times into CLP mice 2, 14, 26, and 38 h post-CLP. Separate groups of animals were given sham, CLP+PBS, or CLP+WKYMVm treatment. Data are expressed as the mean±standard error (n=8). *P<0.05; **P<0.01 compared with CLP+PBS. […]
Protocol for the Th1 and Th2 mice (FIG. 4d) was described below. […] Data are expressed as the mean±standard error (n=5 for e, f), and * indicates P<0.05 compared to OVA+PBS group; ** indicates P<0.05 versus the other groups. […]

Square brackets hold non-standard residues; d marks the D form. Ends that are not written are not given here. * marks the point of attachment. Boc = CC(C)(C)OC(=O)*; For = O=C*

Take “LESIFRSLLFRVM (MMK-1 peptide) [FPR-family agonist]”: the “therapeutic effect of FPR ligands and scrambled peptide” value in the test on CLP mice is reported as “lower than that of WKYMVm”. For the substance “N-formyl-Met-Leu-Phe (For-Met-Leu-Phe) [fMLF, FPR-family agonist]”, the “therapeutic effect of FPR ligands and scrambled peptide” value in the test with CLP mice is on record as “lower than that of WKYMVm”.

With “N-t-butoxycarbonyl-Phe-Leu-Phe-Leu-Phe (Boc-FLFLF) [Boc-PLPLP, FPR1 antagonist]”, the “reversal of the therapeutic effects of WKYMVm by antagonist pre-treatment” value in the test with CLP mice is reported as “only partly reversed”. Moreover, the “WKYMVm-induced bactericidal activity after antagonist pre-treatment” value in test [1] was “significantly inhibited bactericidal activity”. Besides, the “reversal of WKYMVm-induced H2O2 generation by antagonist pre-treatment” value with mouse neutrophils was “partly reversed”. In addition, the “splenocyte proliferation, Th1 mouse model” value in test [2] is “inhibited”. “Val-Trp-Met-Tyr-D-Met-Lys (VWMY[dM]K) [VWMYmK]”: the “therapeutic effect of FPR ligands and scrambled peptide” value in the test with CLP mice is on record as “no therapeutic effect”. As for WHYMVm: analog of WKYMVm (WHYMV[dM]), the “therapeutic effect of WKYMVm analogs on experimental sepsis” value (from here on “therapeutic effect of WKYMVm analogs”) with CLP mice is “no therapeutic effects”.

WKEMVm: analog of WKYMVm (WKEMV[dM]): the “therapeutic effect of WKYMVm analogs” value in the test on CLP mice is given as “no therapeutic effects”. As for WKFMVm: analog of WKYMVm (WKFMV[dM]), in the test on CLP mice, the “therapeutic effect of WKYMVm analogs” value was “no therapeutic effects”. As for WKRMVm: analog of WKYMVm (WKRMV[dM]), the “therapeutic effect of WKYMVm analogs” value in the test on CLP mice was “no therapeutic effects”. With WKWMVm: analog of WKYMVm (WKWMV[dM]), in the test on CLP mice, the “therapeutic effect of WKYMVm analogs” value is on record as “no therapeutic effects”. On to WKYMFm: analog of WKYMVm (WKYMF[dM]), for which, in the test on CLP mice, the “therapeutic effect of WKYMVm analogs” value is listed as “no therapeutic effects”. For WKYMVV: analog of WKYMVm (WKYMVV), the “therapeutic effect of WKYMVm analogs” value in the test with CLP mice was “no therapeutic effects”. For WKYMWm: analog of WKYMVm (WKYMW[dM]), the “therapeutic effect of WKYMVm analogs” value in the test with CLP mice is recorded as “no therapeutic effects”. For WKYMYm: analog of WKYMVm (WKYMY[dM]), the “therapeutic effect of WKYMVm analogs” value in the test with CLP mice was “no therapeutic effects”. As for WRWWWW [WRW^4], the “reversal of the therapeutic effects of WKYMVm by antagonist pre-treatment” value in the test with CLP mice was “completely reversed”. Also, the “WKYMVm-induced bactericidal activity after antagonist pre-treatment” value in test [1] is “significantly inhibited bactericidal activity”. For the same substance, the “reversal of WKYMVm-induced H2O2 generation by antagonist pre-treatment” value with mouse neutrophils is “partly reversed”. For the same substance, the “splenocyte proliferation, Th1 mouse model” value in test [2] is “inhibited”. In the case of WRYMVm: analog of WKYMVm (WRYMV[dM]), the “therapeutic effect of WKYMVm analogs” value with CLP mice is recorded as “no therapeutic effects”.
